Reference: patent publication US9505726B2, “Substituted biphenyl amides as P2X3 and P2X2/3 antagonists” (Roche Palo Alto LLC, priority 2009, dated 2016)

Target: T1, rat P2X3 receptor (Rattus norvegicus, UniProt P49654)
T1 construct: expressed in transfected cells; host or cells: CHO-K1
T1 sequence (P49654 1-397): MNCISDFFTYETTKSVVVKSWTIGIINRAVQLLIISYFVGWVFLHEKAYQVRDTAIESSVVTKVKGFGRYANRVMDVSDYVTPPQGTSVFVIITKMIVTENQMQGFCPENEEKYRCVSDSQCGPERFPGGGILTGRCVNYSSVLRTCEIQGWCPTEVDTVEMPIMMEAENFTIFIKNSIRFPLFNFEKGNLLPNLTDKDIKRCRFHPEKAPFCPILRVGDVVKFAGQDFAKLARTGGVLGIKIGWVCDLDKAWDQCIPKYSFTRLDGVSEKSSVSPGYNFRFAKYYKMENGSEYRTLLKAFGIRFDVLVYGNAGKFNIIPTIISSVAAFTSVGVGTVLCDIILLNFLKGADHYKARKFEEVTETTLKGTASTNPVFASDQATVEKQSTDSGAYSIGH
Assay: P2X3 FLIPR (Fluorometric Imaging Plate Reader) assay
Assay type: cell-based
Settings: CHO-K1 cells transfected with cloned rat P2X3, agonist α,β-meATP 1 μM, Fluo-3 AM calcium fluorescence
Method: CHO-K1 cells were transfected with cloned rat P2X3 or human P2X2/3 receptor subunits and passaged in flasks. 18-24 hours before the FLIPR experiment, cells were released from their flasks, centrifuged, and resuspended in nutrient medium at 2.5×10^5 cells/ml. The cells were aliquoted into black-walled 96-well plates at a density of 50,000 cells/well and incubated overnight in 5% CO2 at 37° C. On the day of the experiment, cells were washed in FLIPR buffer (calcium- and magnesium-free Hank's balanced salt solution, 10 mM HEPES, 2 mM CaCl2, 2.5 mM probenecid; FB). Each well received 100 μl FB and 100 μl of the fluorescent dye Fluo-3 AM [2 μM final conc.]. After a 1 hour dye loading incubation at 37° C., the cells were washed 4 times with FB, and a final 75 μl/well FB was left in each well.
Test compounds (dissolved in DMSO at 10 mM and serially diluted with FB) or vehicle were added to each well (25 μl of a 4× solution) and allowed to equilibrate for 20 minutes at room temperature. The plates were then placed in the FLIPR and a baseline fluorescence measurement (excitation at 488 nm and emission at 510-570 nm) was obtained for 10 seconds before a 100 μl/well agonist or vehicle addition. The agonist was a 2X solution of α,β-meATP producing a final concentration of 1 μM (P2X3) or 5 μM (P2X2/3). Fluorescence was measured for an additional 2 minutes at 1 second intervals after agonist addition. A final addition of ionomycin (5 μM, final concentration) was made to each well of the FLIPR test plate to establish cell viability and maximum fluorescence of dye-bound cytosolic calcium. Peak fluorescence in response to the addition of α,β-meATP (in the absence and presence of test compounds) was measured and inhibition curves generated using nonlinear regression. PPADS, a standard P2X antagonist, was used as a positive control.

P2X3 (pIC50 values for the P2X3 receptor) | IC50 (read-out: P2X3 (pIC50 values for the P2X3 receptor) (converted)) [µM] | Compound
6.31 |  | COCC(C)NC(=O)c1cc(NC(=O)c2cc(C)cs2)cc(-c2ccc(C)cc2)c1 (stereo not drawn) [Compound 1, 4-Methyl-thiophene-2-carboxylic acid [5-(2-methoxy-1-methyl-ethylcarbamoyl)-4′-methyl-biphenyl-3-yl]-amide]
5.2 |  | COCC(C)NC(=O)c1cc(NC(=O)c2ccc(C)s2)cc(-c2ccc(C)cc2)c1 (stereo not drawn) [Compound 2, 5-Methyl-thiophene-2-carboxylic acid [5-(2-methoxy-1-methyl-ethylcarbamoyl)-4′-methyl-biphenyl-3-yl]-amide]
5.66 |  | COCC(C)NC(=O)c1cc(NC(=O)c2ccco2)cc(-c2ccc(C)cc2)c1 (stereo not drawn) [Compound 3, Furan-2-carboxylic acid [5-(2-methoxy-1-methyl-ethylcarbamoyl)-4′-methyl-biphenyl-3-yl]-amide]
5.51 |  | COCC(C)NC(=O)c1cc(NC(=O)c2cccs2)cc(-c2ccc(C)cc2)c1 (stereo not drawn) [Compound 4, Thiophene-2-carboxylic acid [5-(2-methoxy-1-methyl-ethylcarbamoyl)-4′-methyl-biphenyl-3-yl]-amide]
5.69 |  | COCC(C)NC(=O)c1cc(NC(=O)c2ccccc2)cc(-c2ccc(C)cc2)c1 (stereo not drawn) [Compound 5, 5-Benzoylamino-4′-methyl-biphenyl-3-carboxylic acid (2-methoxy-1-methyl-ethyl)-amide]
5.62 |  | COCC(C)NC(=O)c1cc(NC(=O)c2ccccn2)cc(-c2ccc(C)cc2)c1 (stereo not drawn) [Compound 6, Pyridine-2-carboxylic acid [5-(2-methoxy-1-methyl-ethylcarbamoyl)-4′-methyl-biphenyl-3-yl]-amide]
5.49 |  | COCC(C)NC(=O)c1cc(NC(=O)C2CCCCC2)cc(-c2ccc(C)cc2)c1 (stereo not drawn) [Compound 7, 5-(Cyclohexanecarbonyl-amino)-4′-methyl-biphenyl-3-carboxylic acid (2-methoxy-1-methyl-ethyl)-amide]
5.35 |  | COCC(C)NC(=O)c1cc(NC(=O)c2ccc(C)cc2C)cc(-c2ccc(C)cc2)c1 (stereo not drawn) [Compound 8, 5-(2,4-Dimethyl-benzoylamino)-4′-methyl-biphenyl-3-carboxylic acid (2-methoxy-1-methyl-ethyl)-amide]
5.44 |  | COCC(C)NC(=O)c1cc(NC(=O)c2ccc(F)cc2Cl)cc(-c2ccc(C)cc2)c1 (stereo not drawn) [Compound 9, 5-(2-Chloro-4-fluoro-benzoylamino)-4′-methyl-biphenyl-3-carboxylic acid (2-methoxy-1-methyl-ethyl)-amide]
5.87 |  | COCC(C)NC(=O)c1cc(NC(=O)c2ccc(C(F)(F)F)cc2Cl)cc(-c2ccc(C)cc2)c1 (stereo not drawn) [Compound 10, 5-(2-Chloro-4-trifluoromethyl-benzoylamino)-4′-methyl-biphenyl-3-carboxylic acid (2-methoxy-1-methyl-ethyl)-amide]
5.56 |  | COCC(C)NC(=O)c1cc(NC(=O)c2cscn2)cc(-c2ccc(C)cc2)c1 (stereo not drawn) [Compound 11, Thiazole-4-carboxylic acid [5-(2-methoxy-1-methyl-ethylcarbamoyl)-4′-methyl-biphenyl-3-yl]-amide]
5.59 |  | COCC(C)NC(=O)c1cc(NC(=O)c2c(-c3ccccc3)noc2C)cc(-c2ccc(C)cc2)c1 (stereo not drawn) [Compound 12, 5-Methyl-3-phenyl-isoxazole-4-carboxylic acid [5-(2-methoxy-1-methyl-ethylcarbamoyl)-4′-mcthyl-biphenyl-3-yl]-amide]
5.93 |  | COCC(C)NC(=O)c1cc(NC(=O)c2nc(C)oc2C)cc(-c2ccc(C)cc2)c1 (stereo not drawn) [Compound 13, 2,5-Dimethyl-oxazole-4-carboxylic acid [5-(2-methoxy-1-methyl-ethylcarbamoyl)-4′-methyl-biphenyl-3-yl]-amide]
5.35 |  | COCC(C)NC(=O)c1cc(NC(=O)c2sccc2C)cc(-c2ccc(C)cc2)c1 (stereo not drawn) [Compound 14, 3-Methyl-thiophene-2-carboxylic acid [5-(2-methoxy-1-methyl-ethylcarbamoyl)-4′-methyl-biphenyl-3-yl]-amide]
5.34 |  | COCC(C)NC(=O)c1cc(NC(=O)c2cc(C)nn2C)cc(-c2ccc(C)cc2)c1 (stereo not drawn) [Compound 15, 2,5-Dimethyl-2H-pyrazole-3-carboxylic acid [5-(2-methoxy-1-methyl-ethylcarbamoyl)-4′-methyl-biphenyl-3-yl]-amide]
5.4 |  | COCC(C)NC(=O)c1cc(NC(=O)c2cc(C)on2)cc(-c2ccc(C)cc2)c1 (stereo not drawn) [Compound 16, 5-Methyl-isoxazole-3-carboxylic acid [5-(2-methoxy-1-methyl-ethylcarbamoyl)-4′-methyl-biphenyl-3-yl]-amide]
5.87 |  | COCC(C)NC(=O)c1cc(NC(=O)c2cscc2OC)cc(-c2ccc(C)cc2)c1 (stereo not drawn) [Compound 17, 4-Methoxy-thiophene-3-carboxylic acid [5-(2-methoxy-1-methyl-ethylcarbamoyl)-4′-methyl-biphenyl-3-yl]-amide]
5.35 |  | CCC(=O)N(C)c1cc(C(=O)NC(C)COC)cc(-c2ccc(C)cc2)c1 (stereo not drawn) [Compound 18, 4′-Methyl-5-(methyl-propionyl-amino)-biphenyl-3-carboxylic acid (2-methoxy-1-methyl-ethyl)-amide]
6.88 |  | CCC(=O)N(C)c1cc(C(=O)N[C@H](C)CN2CCOCC2)cc(-c2ccc(C)cc2)c1 [Compound 19, 4′-Methyl-5-(methyl-propionyl-amino)-biphenyl-3-carboxylic acid ((R)-1-methyl-2-morpholin-4-yl-ethyl)-amide]
6.05 |  | CC(=O)N(C)c1cc(C(=O)NC(C)c2cnccn2)cc(-c2ccc(C)cc2)c1 (stereo not drawn) [Compound 20, 5-(Acetyl-methyl-amino)-4′-methyl-biphenyl-3-carboxylic acid (1-pyrazin-2-yl-ethyl)-amide]
7.28 |  | CCN(C(C)=O)c1cc(C(=O)NC(C)c2cnccn2)cc(-c2ccc(C)cc2)c1 (stereo not drawn) [Compound 21, 5-(Acetyl-ethyl-amino)-4′-methyl-biphenyl-3-carboxylic acid (1-pyrazin-2-yl-ethyl)-amide]
6.69 |  | COCC(=O)N(C)c1cc(C(=O)NC(C)c2cnccn2)cc(-c2ccc(C)cc2)c1 (stereo not drawn) [Compound 22, 5-[(2-Methoxy-acetyl)-methyl-amino]-4′-methyl-biphenyl-3-carboxylic acid (1-pyrazin-2-yl-ethyl)-amide]
6.5 |  | CCN(C(=O)COC)c1cc(C(=O)NC(C)c2cnccn2)cc(-c2ccc(C)cc2)c1 (stereo not drawn) [Compound 23, 5-[Ethyl-(2-methoxy-acetyl)-amino]-4′-methyl-biphenyl-3-carboxylic acid (1-pyrazin-2-yl-ethyl)-amide]
6.31 |  | CC(=O)N(c1cc(C(=O)NC(C)c2cnccn2)cc(-c2ccc(C)cc2)c1)c1ccncn1 (stereo not drawn) [Compound 24, 5-(Acetyl-pyrimidin-4-yl-amino)-4′-methyl-biphenyl-3-carboxylic acid (1-pyrazin-2-yl-ethyl)-amide]
6.16 |  | CCC(=O)N(c1cc(C(=O)NC(C)c2cnccn2)cc(-c2ccc(C)cc2)c1)c1ccncn1 (stereo not drawn) [Compound 25, 4′-Methyl-5-(propionyl-pyrimidin-4-yl-amino)-biphenyl-3-carboxylic acid (1-pyrazin-2-yl-ethyl)-amide]
6.99 |  | Cc1ccc(-c2cc(C(=O)NC(C)c3cnccn3)cc(N(C(=O)C(C)C)c3ccncn3)c2)cc1 (stereo not drawn) [Compound 26, 5-(Isobutyryl-pyrimidin-4-yl-amino)-4′-methyl-biphenyl-3-carboxylic acid (1-pyrazin-2-yl-ethyl)-amide]
 | 4.47 | CCN(C(=O)c1cnccn1)c1cc(C(=O)NC(C)c2cnccn2)cc(-c2ccc(C)cc2)c1 (stereo not drawn) [Compound 27, Pyrazine-2-carboxylic acid ethyl-[4′-methyl-5-(1-pyrazin-2-yl-ethylcarbamoyl)-biphenyl-3-yl]-amide]
